Assay results published in patent US11414416B1, “Compounds and uses thereof” (Foghorn Therapeutics Inc., priority 2019, dated 2022).

Key:
[1] = biological target: Nanoluciferase-BRD9 fusion protein (Homo sapiens (Human), UniProt Q9H8M2); experiment: SYO1 BRD9 NanoLuc degradation assay; type: cell-based; conditions: Table 5A, SYO-1 cells expressing 3×FLAG-NLuc-BRD9, 6 hours; for DC50: read-out: SYO1 BRD9-NanoLuc degradation IC50
Procedure, shortened: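 Degradation was read as loss of nanoluciferase signal (Nano-Glo) after 6 h compound exposure in a stable SYO-1 line carrying 3×FLAG-NLuc-BRD9 (8000 cells/well). Normalised between DMSO (high) and a 1 μM known BRD9 degrader (low).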

[2] = biological target: BRD9 bromodomain (Homo sapiens (Human), UniProt Q9H8M2); experiment: BRD9 bromodomain TR-FRET competition binding assay; conditions: Table 4; competition with biotinylated ligand, 3 nM Flag-BRD9, 90 minutes
Procedure, shortened: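 TEV-cleaved Flag-BRD9 (P133-K239, 3 nM) competed against 3.75 nM biotinylated ligand, with 7.5 nM APC-streptavidin and 0.2 nM Eu-W1024 anti-FLAG, in HEPES pH 7.4, NaCl, TCEP, Tween-20, BSA. Compounds were serially diluted 3-fold; after 90 min at room temperature the 665/615 nm emission ratio was read.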

Chain of Nanoluciferase-BRD9 fusion protein (Q9H8M2 whole entry, the tested form may be a part): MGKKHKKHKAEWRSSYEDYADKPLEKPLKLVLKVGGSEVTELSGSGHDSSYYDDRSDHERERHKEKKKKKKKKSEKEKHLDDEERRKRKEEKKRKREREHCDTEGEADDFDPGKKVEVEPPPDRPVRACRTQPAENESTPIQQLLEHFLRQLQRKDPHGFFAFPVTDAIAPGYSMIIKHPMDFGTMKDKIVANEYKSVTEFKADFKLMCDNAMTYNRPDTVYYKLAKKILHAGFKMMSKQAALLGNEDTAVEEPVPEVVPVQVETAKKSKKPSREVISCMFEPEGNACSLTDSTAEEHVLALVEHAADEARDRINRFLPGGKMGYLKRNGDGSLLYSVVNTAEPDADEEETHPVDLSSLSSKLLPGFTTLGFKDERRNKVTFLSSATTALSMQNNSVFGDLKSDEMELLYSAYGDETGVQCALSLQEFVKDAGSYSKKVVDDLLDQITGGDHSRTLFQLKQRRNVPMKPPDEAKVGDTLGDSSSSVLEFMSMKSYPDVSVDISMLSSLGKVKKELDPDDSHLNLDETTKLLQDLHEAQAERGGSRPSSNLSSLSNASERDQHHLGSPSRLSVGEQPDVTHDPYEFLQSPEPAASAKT
Chain of BRD9 bromodomain (Q9H8M2 133-239): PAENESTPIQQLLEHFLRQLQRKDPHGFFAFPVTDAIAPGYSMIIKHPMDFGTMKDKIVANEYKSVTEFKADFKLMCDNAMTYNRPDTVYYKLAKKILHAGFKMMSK

IC50 [1] | IC50 [2] | DC50 [1] | SMILES
< 10 nM | 10 to 100 nM |  | COc1cc(-c2cn(C)c(=O)c3cnccc23)cc(OC)c1CN(C)C12CC(C(=O)NCCCCCNc3cccc4c3C(=O)N(C3CCC(=O)NC3=O)C4=O)(C1)C2 (stereo not drawn) [Compound D57, 3-([[2,6-dimethoxy-4-(2-methyl-1-oxo-2,7-naphthyridin-4-yl)phenyl]methyl](methyl)amino)-N-(5-[[2-(2,6-dioxopiperidin-3-yl)-1,3-dioxoisoindol-4-yl]amino]pentyl)bicyclo[1.1.1]pentane-1-carboxamide formic acid]
< 10 nM | < 10 nM |  | COc1cc(-c2cn(C)c(=O)c3cnccc23)cc(OC)c1CN(C)C12CC(C(=O)NCCOCCOCCNc3cccc4c3C(=O)N(C3CCC(=O)NC3=O)C4=O)(C1)C2 (stereo not drawn) [Compound D58, 3-([[2,6-dimethoxy-4-(2-methyl-1-oxo-2,7-naphthyridin-4-yl)phenyl]methyl] (methyl)amino)-N-[2-[2-(2-[[2-(2,6-dioxopiperidin-3-yl)-1,3-dioxoisoindol-4-yl]amino]ethoxy)ethoxy]ethyl]bicyclo[1.1.1]pentane-1-carboxamide]
< 10 nM | < 10 nM |  | COc1cc(-c2cn(C)c(=O)c3cnccc23)cc(OC)c1CN(C)C12CC(NC(=O)CCOCCOCCNc3cccc4c3C(=O)N(C3CCC(=O)NC3=O)C4=O)(C1)C2 (stereo not drawn) [Compound D59, N-[3-([[2,6-dimethoxy-4-(2-methyl-1-oxo-2,7-naphthyridin-4-yl)phenyl]methyl](methyl)amino)bicyclo[1.1.1]pentan-1-yl]-3-[2-(2-[[2-(2,6-dioxopiperidin-3-yl)-1,3-dioxoisoindol-4-yl]amino]ethoxy)ethoxy]propanamide formic acid]
< 10 nM | < 10 nM |  | COc1cc(-c2cn(C)c(=O)c3cnccc23)cc(OC)c1CN(C)C12CC(NC(=O)CCCCCOc3cccc4c3C(=O)N(C3CCC(=O)NC3=O)C4=O)(C1)C2 (stereo not drawn) [Compound D60, N-[3-([[2,6-dimethoxy-4-(2-methyl-1-oxo-2,7-naphthyridin-4-yl)phenyl]methyl](methyl)amino)bicyclo[1.1.1]pentan-1-yl]-6-[[2-(2,6-dioxopiperidin-3-yl)-1,3-dioxoisoindol-4-yl]oxy]hexanamide formic acid]
100 to 1000 nM | 10 to 100 nM |  | COc1cc(-c2cn(C)c(=O)c3cnccc23)cc(OC)c1CN1CCC2(CC1)CN(C(=O)COc1ccc3c(c1)C(=O)N(C1CCC(=O)NC1=O)C3=O)CCO2 (stereo not drawn) [Compound D64, 5-[2-(9-[[2,6-dimethoxy-4-(2-methyl-1-oxo-2,7-naphthyridin-4-yl)phenyl]methyl]-1-oxa-4,9-diazaspiro[5.5]undecan-4-yl)-2-oxoethoxy]-2-(2,6-dioxopiperidin-3-yl)isoindole-1,3-dione formic acid]
100 to 1000 nM | 10 to 100 nM |  | COc1cc(-c2cn(C)c(=O)c3cnccc23)cc(OC)c1CN1CCN(C(=O)C2CC2CNC(=O)COc2cccc3c2C(=O)N(C2CCC(=O)NC2=O)C3=O)CC1 (stereo not drawn) [Compound D65, N-[[2-(4-[[2,6-dimethoxy-4-(2-methyl-1-oxo-2,7-naphthyridin-4-yl)phenyl]methyl]piperazine-1-carbonyl)cyclopropyl]methyl]-2-[[2-(2,6-dioxopiperidin-3-yl)-1,3-dioxoisoindol-4-yl]oxy]acetamide]
100 to 1000 nM | 10 to 100 nM |  | COc1cc(-c2cn(C)c(=O)c3cnccc23)cc(OC)c1CN1CCN(C(=O)C2CC2CNC(=O)COc2ccc3c(c2)C(=O)N(C2CCC(=O)NC2=O)C3=O)CC1 (stereo not drawn) [Compound D66, N-[[2-(4-[[2,6-dimethoxy-4-(2-methyl-1-oxo-2,7-naphthyridin-4-yl)phenyl]methyl]piperazine-1-carbonyl)cyclopropyl]methyl]-2-[[2-(2,6-dioxopiperidin-3-yl)-1,3-dioxoisoindol-5-yl]oxy]acetamide formic acid]
< 10 nM | < 10 nM |  | COc1cc(-c2cn(C)c(=O)c3cnccc23)cc(OC)c1CN1CC(S(=O)(=O)NCCCCCCNc2ccc3c(c2)C(=O)N(C2CCC(=O)NC2=O)C3=O)C1 (stereo not drawn) [Compound D67, 1-[[2,6-dimethoxy-4-(2-methyl-1-oxo-1,2-dihydro-2,7-naphthyridin-4-yl)phenyl]methyl]-N-(6-[[2-(2,6-dioxopiperidin-3-yl)-1,3-dioxo-2,3-dihydro-1H-isoindol-5-yl]amino]hexyl)azetidine-3-sulfonamide formic acid]
< 10 nM | < 10 nM |  | COc1cc(-c2cn(C)c(=O)c3cnccc23)cc(OC)c1CN(C)CC12CC(NC(=O)CCCCOc3cccc4c3C(=O)N(C3CCC(=O)NC3=O)C4=O)(C1)C2 (stereo not drawn) [Compound D69, N-[3-[([[2,6-dimethoxy-4-(2-methyl-1-oxo-2,7-naphthyridin-4-yl)phenyl]methyl](methyl)amino)methyl]bicyclo[1.1.1]pentan-1-yl]-5-[[2-(2,6-dioxopiperidin-3-yl)-1,3-dioxoisoindol-4-yl]oxy]pentanamide]
10 to 100 nM | 10 to 100 nM |  | COc1cc(-c2cn(C)c(=O)c3cnccc23)cc(OC)c1CN(C)CCCOCCN1CCN(c2ccc3c(c2)C(=O)N(C2CCC(=O)NC2=O)C3=O)CC1 (stereo not drawn) [Compound D70, 5-(4-[2-[3-([[2,6-dimethoxy-4-(2-methyl-1-oxo-2,7-naphthyridin-4-yl)phenyl]methyl](methyl)amino)propoxy]ethyl]piperazin-1-yl)-2-(2,6-dioxopiperidin-3-yl)isoindole-1,3-dione formic acid]
 | < 10 nM | < 10 nM | COc1cc(-c2cn(C)c(=O)c3cnccc23)cc(OC)c1CN(C)CC(=O)NCCCC(=O)NC12CC(Nc3cccc4c3C(=O)N(C3CCC(=O)NC3=O)C4=O)(C1)C2 (stereo not drawn) [Compound D71, 4-(2-((2,6-dimethoxy-4-(2-methyl-1-oxo-1,2-dihydro-2,7-naphthyridin-4-yl)benzyl) (methyl)amino)acetamido)-N-(3-((2-(2,6-dioxopiperidin-3-yl)-1,3-dioxoisoindolin-4-yl)amino)bicycle[1.1.1]pentan-1-yl)butanamide]
< 10 nM | < 10 nM |  | COc1cc(-c2cn(C)c(=O)c3cnccc23)cc(OC)c1CN(C)C(=O)CCCCN1CCOC2(CCN(c3ccc4c(c3)C(=O)N(C3CCC(=O)NC3=O)C4=O)CC2)C1 (stereo not drawn) [Compound D72, N-[[2,6-dimethoxy-4-(2-methyl-1-oxo-2,7-naphthyridin-4-yl)phenyl]methyl]-5-[9-[2-(2,6-dioxopiperidin-3-yl)-1,3-dioxoisoindol-5-yl]-1-oxa-4,9-diazaspiro[5.5]undecan-4-yl]-N-methylpentanamide formic acid]
< 10 nM | 10 to 100 nM |  | COc1cc(-c2cn(C)c(=O)c3cnccc23)cc(OC)c1CN(C)CC(=O)NCCCCN1CCOC2(CCN(c3ccc4c(c3)C(=O)N(C3CCC(=O)NC3=O)C4=O)CC2)C1 (stereo not drawn) [Compound D73, 2-([[2,6-dimethoxy-4-(2-methyl-1-oxo-2,7-naphthyridin-4-yl)phenyl]methyl](methyl)amino)-N-(4-[9-[2-(2,6-dioxopiperidin-3-yl)-1,3-dioxoisoindol-5-yl]-1-oxa-4,9-diazaspiro[5.5]undecan-4-yl]butyl)acetamide formic acid]
> 1000 nM | 10 to 100 nM |  | COc1cc(-c2cn(C)c(=O)c3cnccc23)cc(OC)c1CN1CC2(CCC2NC(=O)CCOCCOc2cccc3c2C(=O)N(C2CCC(=O)NC2=O)C3=O)C1 (stereo not drawn) [Compound D84]
100 to 1000 nM | 10 to 100 nM |  | COc1cc(-c2cn(C)c(=O)c3cnccc23)cc(OC)c1CN1CC2(CCN(C(=O)CCOCCOc3cccc4c3C(=O)N(C3CCC(=O)NC3=O)C4=O)CC2)C1 (stereo not drawn) [Compound D85]
100 to 1000 nM | 10 to 100 nM |  | COc1cc(-c2cn(C)c(=O)c3cnccc23)cc(OC)c1CN1CCC12CN(C(=O)CCOCCOc1cccc3c1C(=O)N(C1CCC(=O)NC1=O)C3=O)C2 (stereo not drawn) [Compound D86]
 | < 10 nM | 10 to 100 nM | COc1cc(-c2cn(C)c(=O)c3cnccc23)cc(OC)c1CN1CCC2(C1)CN(C(=O)CCOCCOc1cccc3c1C(=O)N(C1CCC(=O)NC1=O)C3=O)C2 (stereo not drawn) [Compound D87]
 | < 10 nM | 10 to 100 nM | COc1cc(-c2cn(C)c(=O)c3cnccc23)cc(OC)c1CN1CCC2(CC1)CN(C(=O)CCOCCOc1cccc3c1C(=O)N(C1CCC(=O)NC1=O)C3=O)C2 (stereo not drawn) [Compound D88]
< 10 nM | < 10 nM |  | COc1cc(-c2cn(C)c(=O)c3cnccc23)cc(OC)c1CN1CCC2(CCN(C(=O)CCOCCOc3cccc4c3C(=O)N(C3CCC(=O)NC3=O)C4=O)CC2)C1 (stereo not drawn) [Compound D89]

SMILES | IC50 [1] | IC50 [2] | DC50 [1]
COc1cc(-c2cn(C)c(=O)c3cnccc23)cc(OC)c1CN(C)CC12CC(NC(=O)CCOCCOCCNc3cccc4c3C(=O)N(C3CCC(=O)NC3=O)C4=O)(C1)C2 (stereo not drawn) [Compound D68, N-[3-[([[2,6-dimethoxy-4-(2-methyl-1-oxo-2,7-naphthyridin-4-yl)phenyl]methyl](methyl)amino)methyl]bicyclo[1.1.1]pentan-1-yl]-3-[2-(2-[[2-(2,6-dioxopiperidin-3-yl)-1,3-dioxoisoindol-4-yl]amino]ethoxy)ethoxy]propanamide formic acid] |  | < 10 nM | 100 to 1000 nM
COc1cc(-c2cn(C)c(=O)c3cnccc23)cc(OC)c1CNCCOCC(=O)N1CC(COc2ccc3c(c2)C(=O)N(C2CCC(=O)NC2=O)C3=O)C1 (stereo not drawn) [Compound D74, 5-[(1-[2-[2-([[2,6-dimethoxy-4-(2-methyl-1-oxo-2,7-naphthyridin-4-yl)phenyl]methyl]amino)ethoxy]acetyl]azetidin-3-yl)methoxy]-2-(2,6-dioxopiperidin-3-yl)isoindole-1,3-dione formic acid] |  | < 10 nM | 100 to 1000 nM
